Experiment [1] relates to MCL-1ΔNΔC. In words: High-throughput competitive FP binding screen, FITC-MCL-1 SAHB/MCL-1ΔNΔC interaction. Conditions: selectivity for MCL-1ΔNΔC over BCL-XLΔC targeting (BCL-XL % Bound minus MCL-1 % Bound).
Experiment [2] addresses MCL-1ΔNΔC (Homo sapiens, UniProt Q07820). The description is as above. Conditions: FITC-MCL-1 SAHB/MCL-1ΔNΔC interaction pair, competitive FP screen. On the set-up: the C-terminal alpha-helix was deleted from each of these constructs; GST (N, cleaved yes); made in house.
The next experiment addresses BCL-XLΔC (Homo sapiens, UniProt Q07817). Kind of experiment: High-throughput competitive FP binding screen, FITC-BAD BH3/BCL-XLΔC interaction. Conditions: FITC-BAD BH3/BCL-XLΔC interaction pair, competitive FP screen.

BCL-XLΔC, sequence (Q07817 1-212 limits assumed, stated change not applied): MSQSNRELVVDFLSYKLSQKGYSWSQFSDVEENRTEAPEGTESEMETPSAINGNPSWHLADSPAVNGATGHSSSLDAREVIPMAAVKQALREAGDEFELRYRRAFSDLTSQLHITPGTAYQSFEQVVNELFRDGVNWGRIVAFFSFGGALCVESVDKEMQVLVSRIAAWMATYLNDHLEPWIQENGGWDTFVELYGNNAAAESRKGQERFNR
MCL-1ΔNΔC (Homo sapiens, UniProt Q07820), sequence (Q07820 172-320 limits assumed, stated change not applied): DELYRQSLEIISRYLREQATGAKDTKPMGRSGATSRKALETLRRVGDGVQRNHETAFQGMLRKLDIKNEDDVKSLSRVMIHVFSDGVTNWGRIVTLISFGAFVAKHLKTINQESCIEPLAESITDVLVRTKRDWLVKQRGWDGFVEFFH

Take `CCN(CC)c1cc(C)c2cc(NC(=O)/C=C/c3ccco3)ccc2n1`: in the experiment on MCL-1ΔNΔC [1], the “Spec Values” worked out at 68.15. The “MCL-1% Bound” value at MCL-1ΔNΔC [2] turned out to be 11.73%. Further, the “BCL-XL % Bound” value on BCL-XLΔC is on record as 79.88%.

In the case of `N#CC1=C(S)NC(=O)C(C#N)C12CCCCC2` (stereo not drawn), the “Spec Values” in the experiment on MCL-1ΔNΔC [1] was found to be 67.9. On MCL-1ΔNΔC [2], the “MCL-1% Bound” value is reported as 39.1%. Besides, the “BCL-XL % Bound” value at BCL-XLΔC worked out at 107.0%.

For the compound `CCOC(=O)C(C)Oc1cccc2c(=O)n(CC(=O)Nc3ccc4c(c3)CCCO4)ccc12` (stereo not drawn), the “Spec Values” in the experiment on MCL-1ΔNΔC [1] is recorded as 67.48. The “MCL-1% Bound” value on MCL-1ΔNΔC [2] came out at 34.53%. In addition, the “BCL-XL % Bound” value on BCL-XLΔC stood at 102%.

Take `COc1cc2c(O)c3c(c(-c4ccc5c(c4)OCO5)c2cc1OC)C(=O)OC3`: in the experiment with MCL-1ΔNΔC [1], the “Spec Values” was 66.63. Further, the “MCL-1% Bound” value on MCL-1ΔNΔC [2] was 37.92%. Also, the “BCL-XL % Bound” value at BCL-XLΔC is given as 104.6%.

In the case of `O=C(ON1C(=O)CCC1=O)c1ccc(Cl)cc1Cl`, in the experiment with MCL-1ΔNΔC [1], the “Spec Values” was found to be 66.25. Further, the “MCL-1% Bound” value on MCL-1ΔNΔC [2] worked out at 30.48%. Further, the “BCL-XL % Bound” value at BCL-XLΔC is recorded as 96.73%.

Consider `Cn1cc2c(n1)-c1cc(Cl)ccc1SC2`, for which the “Spec Values” in the experiment on MCL-1ΔNΔC [1] is given as 66.16. At MCL-1ΔNΔC [2], the “MCL-1% Bound” value was 23.45%. Besides, on BCL-XLΔC, the “BCL-XL % Bound” value came to 89.61%.

As to `CCOC(=O)c1cc(CC)sc1NC(=O)C=C(C)C`, in the experiment on MCL-1ΔNΔC [1], the “Spec Values” came out at 66. The “MCL-1% Bound” value on MCL-1ΔNΔC [2] is given as 24.13%. In addition, the “BCL-XL % Bound” value on BCL-XLΔC stood at 90.12%.

Turning to `COc1ccc(C(Nc2cc(C)ccn2)c2ccc3cccnc3c2O)cc1O` (stereo not drawn), the “Spec Values” with MCL-1ΔNΔC [1] was found to be 65.85. At MCL-1ΔNΔC [2], the “MCL-1% Bound” value is 27.17%. At BCL-XLΔC, the “BCL-XL % Bound” value turned out to be 93.02%.

`c1cc2nsnc2c2c1Nc1nc3nonc3nc1N2`: in the experiment with MCL-1ΔNΔC [1], the “Spec Values” amounted to 65.78. Besides, the “MCL-1% Bound” value on MCL-1ΔNΔC [2] is −8.097%. Further, at BCL-XLΔC, the “BCL-XL % Bound” value amounted to 57.68%.

For `Cc1ncc(CO)c2c1Oc1nc(-c3ccccc3)[nH]c(=S)c1C2`, the “Spec Values” with MCL-1ΔNΔC [1] is 65.07. On MCL-1ΔNΔC [2], the “MCL-1% Bound” value is 66.14%. Besides, on BCL-XLΔC, the “BCL-XL % Bound” value is 131.2%.

For `CCCCc1c(C)sc(NC(=S)Nn2cnnc2)c1C(=O)OCC`, the “Spec Values” in the experiment on MCL-1ΔNΔC [1] is 64.95. Besides, the “MCL-1% Bound” value at MCL-1ΔNΔC [2] is given as 4.578%. In addition, at BCL-XLΔC, the “BCL-XL % Bound” value was 69.53%.

For `CC1CCc2c(sc3[nH]c(=S)sc(=N)c23)C1` (stereo not drawn), in the experiment on MCL-1ΔNΔC [1], the “Spec Values” amounted to 64.71. On MCL-1ΔNΔC [2], the “MCL-1% Bound” value is 18.95%. For the same compound, the “BCL-XL % Bound” value on BCL-XLΔC was determined as 83.66%.

For the compound `O=C1C=Cc2ccc3c4c(ccc1c24)C=CC3=O`, the “Spec Values” in the experiment on MCL-1ΔNΔC [1] stood at 64.7. Besides, the “MCL-1% Bound” value on MCL-1ΔNΔC [2] worked out at 26.7%. Also, on BCL-XLΔC, the “BCL-XL % Bound” value turned out to be 91.4%.

On to `CC1=C/C(=N\Nc2ccccc2Cl)CC1`, for which the “Spec Values” with MCL-1ΔNΔC [1] worked out at 64.61. In addition, the “MCL-1% Bound” value at MCL-1ΔNΔC [2] is listed as 34.4%. Also, on BCL-XLΔC, the “BCL-XL % Bound” value is given as 99.01%.

With `O=C(O)c1cccc(-c2ccc(CC3Sc4ccccc4C3=O)o2)c1` (stereo not drawn), the “Spec Values” in the experiment with MCL-1ΔNΔC [1] was determined as 64.25. The “MCL-1% Bound” value on MCL-1ΔNΔC [2] is listed as 31.17%. In addition, on BCL-XLΔC, the “BCL-XL % Bound” value is listed as 95.42%.

With `O=C(O)C1Nc2c(I)cccc2C2C=CCC12` (stereo not drawn), the “Spec Values” with MCL-1ΔNΔC [1] is recorded as 64.16. Further, on MCL-1ΔNΔC [2], the “MCL-1% Bound” value worked out at 36.12%. Also, the “BCL-XL % Bound” value at BCL-XLΔC was determined as 100.3%.

For `Cc1ccc(CCNC(=O)c2ccc3nc(-c4ccco4)c(-c4ccco4)nc3c2)cc1`, in the experiment with MCL-1ΔNΔC [1], the “Spec Values” is 64.01. Moreover, the “MCL-1% Bound” value at MCL-1ΔNΔC [2] is 35.73%. For the same compound, the “BCL-XL % Bound” value at BCL-XLΔC is given as 99.74%.

Turning to `Clc1cccc2c(N3CCCCCC3)cnnc12`, the “Spec Values” in the experiment on MCL-1ΔNΔC [1] is on record as 63.59. Also, the “MCL-1% Bound” value on MCL-1ΔNΔC [2] is listed as 21.78%. The “BCL-XL % Bound” value at BCL-XLΔC is on record as 85.37%.

Regarding `Cc1ccc(C)c2[nH]c(=O)c(C(c3nnnn3C3CCCC3)N3CCCC3)cc12` (stereo not drawn), the “Spec Values” in the experiment on MCL-1ΔNΔC [1] is given as 63.57. The “MCL-1% Bound” value on MCL-1ΔNΔC [2] was 39.75%. Further, the “BCL-XL % Bound” value on BCL-XLΔC is 103.3%.

Regarding `CS(=O)(=O)CS(=O)(=O)NNc1ncc(C(F)(F)F)cc1Cl`, the “Spec Values” with MCL-1ΔNΔC [1] came out at 63.45. Besides, the “MCL-1% Bound” value at MCL-1ΔNΔC [2] is listed as 41.29%. Besides, the “BCL-XL % Bound” value at BCL-XLΔC was determined as 104.7%.

On to `CN1C(=O)C2(NN=C(c3ccccc3)S2)c2cc(Br)ccc21` (stereo not drawn), for which, in the experiment with MCL-1ΔNΔC [1], the “Spec Values” is reported as 63.14. The “MCL-1% Bound” value on MCL-1ΔNΔC [2] amounted to 18.57%. Besides, the “BCL-XL % Bound” value on BCL-XLΔC was 81.72%.

`O=C(NN=C1CCCC1)c1ccccc1NS(=O)(=O)c1cccs1`: the “Spec Values” in the experiment with MCL-1ΔNΔC [1] is 63.07. Moreover, the “MCL-1% Bound” value at MCL-1ΔNΔC [2] is on record as 29.27%. On BCL-XLΔC, the “BCL-XL % Bound” value turned out to be 92.34%.

For the compound `Cc1nc2c(C(=O)NCc3ccccc3Cl)cnn2c(O)c1Cl`, the “Spec Values” in the experiment with MCL-1ΔNΔC [1] is listed as 63.02. Also, at MCL-1ΔNΔC [2], the “MCL-1% Bound” value turned out to be 31.4%. Further, on BCL-XLΔC, the “BCL-XL % Bound” value came to 94.42%.

As to `O=C(c1ccc(O)cc1)N1CCN(c2cccc(Cl)c2)CC1`, the “Spec Values” in the experiment with MCL-1ΔNΔC [1] is listed as 62.99. Moreover, at MCL-1ΔNΔC [2], the “MCL-1% Bound” value was determined as 27.72%. Besides, the “BCL-XL % Bound” value on BCL-XLΔC is given as 90.71%.

With `O=C(c1ccccc1)c1nc2ccccc2oc1=O`, the “Spec Values” with MCL-1ΔNΔC [1] came out at 62.88. At MCL-1ΔNΔC [2], the “MCL-1% Bound” value is on record as −19.61%. Also, the “BCL-XL % Bound” value on BCL-XLΔC turned out to be 43.27%.

Take `CCCCn1c(=O)[nH]c(=O)c2c1nc(-c1cccs1)c(=O)n2C`: the “Spec Values” in the experiment on MCL-1ΔNΔC [1] was determined as 62.84. Moreover, on MCL-1ΔNΔC [2], the “MCL-1% Bound” value came out at 6.013%. Besides, on BCL-XLΔC, the “BCL-XL % Bound” value was 68.85%.

As to `Oc1cccc(C(c2ccc3cccnc3c2O)N2CCCC2)c1` (stereo not drawn), the “Spec Values” in the experiment on MCL-1ΔNΔC [1] was 62.71. At MCL-1ΔNΔC [2], the “MCL-1% Bound” value is reported as 43.7%. Further, on BCL-XLΔC, the “BCL-XL % Bound” value is 106.4%.

For the compound `CCCCC(=O)Cc1ccco1`, the “Spec Values” with MCL-1ΔNΔC [1] is listed as 62.08. Moreover, at MCL-1ΔNΔC [2], the “MCL-1% Bound” value is listed as 40.94%. For the same compound, the “BCL-XL % Bound” value on BCL-XLΔC was found to be 103%.

On to `O=C1C=CC(=O)C(CCC2=CC(=O)C=CC2=O)=C1`, for which the “Spec Values” with MCL-1ΔNΔC [1] is 61.8. Besides, the “MCL-1% Bound” value at MCL-1ΔNΔC [2] was found to be 31.21%. In addition, the “BCL-XL % Bound” value on BCL-XLΔC was 93.01%.

For the compound `Cc1nc(COC(=O)c2cc(O)c3ccccc3c2O)cs1`, the “Spec Values” in the experiment with MCL-1ΔNΔC [1] turned out to be 61.73. Moreover, the “MCL-1% Bound” value on MCL-1ΔNΔC [2] came to 39.52%. Moreover, the “BCL-XL % Bound” value on BCL-XLΔC is on record as 101.3%.

Turning to `O=C(CSc1nc2c(sc(=S)n2Cc2ccco2)c(=O)n1-c1ccccc1)c1ccc(O)c(O)c1`, the “Spec Values” in the experiment on MCL-1ΔNΔC [1] turned out to be 61.48. Also, on MCL-1ΔNΔC [2], the “MCL-1% Bound” value was 59.44%. Besides, the “BCL-XL % Bound” value on BCL-XLΔC amounted to 120.9%.

In the case of `N#C/C(=C/C=C/c1ccc(-c2cc(Cl)ccc2Cl)o1)C(N)=S`, the “Spec Values” with MCL-1ΔNΔC [1] came to 60.96. Also, the “MCL-1% Bound” value on MCL-1ΔNΔC [2] is 18.44%. In addition, the “BCL-XL % Bound” value at BCL-XLΔC came out at 79.39%.

`Cn1c(/N=C/c2c(O)ccc3ccccc23)nc2ccc(Br)cc21`: the “Spec Values” in the experiment on MCL-1ΔNΔC [1] was 60.88. For the same compound, the “MCL-1% Bound” value at MCL-1ΔNΔC [2] is recorded as −29.64%. Also, on BCL-XLΔC, the “BCL-XL % Bound” value is on record as 31.24%.

Regarding `N#CC1=C(c2ccc(Cl)cc2)COC1=O`, the “Spec Values” in the experiment with MCL-1ΔNΔC [1] worked out at 60.84. Moreover, the “MCL-1% Bound” value at MCL-1ΔNΔC [2] is listed as 27.28%. Further, the “BCL-XL % Bound” value on BCL-XLΔC is listed as 88.12%.

With `O=C(CSc1nnc(-c2ccco2)c(-c2ccco2)n1)N1c2ccccc2Sc2ccc(Cl)cc21`, the “Spec Values” in the experiment on MCL-1ΔNΔC [1] was 60.7. Besides, the “MCL-1% Bound” value at MCL-1ΔNΔC [2] was 37.6%. For the same compound, the “BCL-XL % Bound” value on BCL-XLΔC came out at 98.3%.

For `N#C/C(=C/c1cn(Cc2ccc(C(=O)O)o2)c2ccccc12)c1ccc(F)cc1`, the “Spec Values” with MCL-1ΔNΔC [1] came to 60.36. The “MCL-1% Bound” value on MCL-1ΔNΔC [2] is listed as 4.673%. Moreover, the “BCL-XL % Bound” value at BCL-XLΔC was 65.03%.

Consider `CS/C(=N\S(=O)(=O)c1ccccc1)NNc1ccccc1`, for which the “Spec Values” in the experiment on MCL-1ΔNΔC [1] stood at 59.46. The “MCL-1% Bound” value on MCL-1ΔNΔC [2] is listed as 39.93%. In addition, the “BCL-XL % Bound” value on BCL-XLΔC was 99.39%.

(Values after patent US20150315211A1, “SMALL MOLECULES FOR THE MODULATION OF MCL-1 AND METHODS OF MODULATING CELL DEATH, CELL DIVISION, CELL DIFFERENTIATION AND METHODS OF TREATING DISORDERS” (priority 2010, published 2015).)
